Measured values: patent US11987569B2, “Substituted imidazoquinolines as agonists of TLR7” (BIONTECH SE, priority 2017, dated 2024)

Tested on: superficial basal cell carcinomas
Test: not given
Details: marketed as 5% cream (Aldara); cited from earlier work

Row | Structure (SMILES) | 5-year clearance of superficial basal cell carcinomas
1 | CC(C)Cn1cnc2c(N)nc3ccccc3c21 [Imiquimod, imiquimod] | approx. 80%

Tested on: human PBMCs
Test: IFN-α induction assay: IFN-α induction by TLR agonists in human PBMCs (Luminex)
Assay type: cell-based
Details: 24 h incubation, comparative compounds, Table 2
Procedure: IFN-α Induction Assay—IFN-α Induction by TLR Agonists in Human PBMCs
Materials and Devices: Bio Plex 200 Luminex device, and BioPlex Manager software; MultiScreen Filter Plates (Millipore, MABVN1250); low binding reaction vials 1.5 ml (Sarstedt, 72.706.600); Activation Buffer: 0.1M Na-dihydrogen phosphate, 0.1M Di-Na hydrogen phosphate pH 6.2; Sulfo-NHS (N-hydroxysulfosuccinimide) solution: 50 mg/ml in water (freshly prepared); EDC solution: 50 mg/ml in water (freshly prepared); Coupling Buffer: PBS; Washing Buffer: PBS+0.05% Tween20; Blocking Buffer: PBS+10 mg/ml BSA+0.05% sodium azide; Assay Buffer: PBS+10 mg/ml BSA;
In each well of a 96-well U-bottom plate 200,000 PBMCs were pre-incubated in medium (RPMI1640−Gibco #61870-044÷10% FBS+1% L-glutamine) for 5 hours at 37° C. and 5% CO2 before the compounds of the present invention or controls were added, respectively. Upon addition of compounds of the present invention or controls, the cells are incubated for another 24 h at 37° C. and 5% Co2.
Luminex assay, Step 1: Coupling of antibody to beads: • transfer a suspension (beads are stored in buffer as provided by manufacturer) of about 5 million MicroPlex Microspheres (=beads) into a low binding reaction vial • centrifuge bead suspension for 1 min at 10,000 g, discard supernatant and resuspend pellet in 160 μl Activation Buffer, repeat once • add 20 μl Sulfo-NHS solution and 20 μl EDC solution, vortex • incubate for 20 min in the absence of light • centrifuge bead suspension for 1 min at 10,000 g, discard supernatant and resuspend pellet in 500 μl Coupling Buffer, repeat once • add capture antibody (CaptureAK eBioscience #BMS160, 5 μg per 1 Mio beads) • incubate 2 h at RT in the absence of light while swaying • centrifuge bead suspension for 1 min at 10,000 g, discard supernatant and resuspend pellet in 500 μl Washing Buffer, repeat once • centrifuge bead suspension for 1 min at 10,000 g, discard supernatant and resuspend pellet in 100 μl Blocking Buffer
Luminex Assay, Step 2: Measurement • add 100 μl Assay Buffer into each filter plate well (seal any unused wells with adhesive tape), then remove buffer • add about 2,000 beads per well per analyte (per analyte, a different bead type with distinct fluorescence color is used), suspended in 50 μL of Assay Buffer • remove buffer and wash twice with 100 μl Washing Buffer per well • per well, add 50 μl sample solution from the (pre-)incubation step (cell supernatant), or Standard (IFN-α standard eBioscience #BMS216MST—concentration gradient, highest standard concentration 2500 pg/ml) or Assay Buffer (as blanks) • shake plate • incubate plate for 2 h at RT in the absence of light, while swaying the plate • wash three times with 100 μl Washing Buffer per well • add 25 μl antibody detection mix (DetectionAK eBioscience #BMS1016BT diluted 1:1000) in Assay Buffer per well, then vortex plate • incubate plate for 1 h at RT in the absence of light, while swaying the plate • wash three times with 100 μl Washing Buffer per well • add 50 μl Streptavidin/PE (diluted 1:200 in Assay Buffer) per well, then vortex plate • incubate plate for 10 min at RT in the absence of light, while swaying the plate • wash three times with 100 μl Washing Buffer per well • add 100 μl Assay Buffer per well, then vortex plate • start Luminex measurement according to manufacturer's instructions, measuring at least 50 beads per well per analyte
The compounds were tested at 8 different concentrations (1 μM, 0.3 μM, 0.1 μM, 0.03 μM, 0.01 μM 0.003 μM, 0.001 μM, 0.0003 μM) using a half-logarithmic dilution. The release of Interferon-alpha (IFN-α) presents a bell-shaped distribution within the dilution window. The minimum effective concentration (MEC) is the lowest concentration required to induce the desired IFN-α release. It represents the outset of the bell-shaped distribution and is given in nM. […]

Row | Structure (SMILES) | Minimum effective concentration IFN-α release
2 | CCNCc1nc2c(N)nc3ccccc3c2n1CCCCN(C(C)=O)C1CCS(=O)(=O)C1 (stereo not drawn) [10′, reference compound] | inactive
3 | CCNCc1nc2c(N)nc3ccccc3c2n1CCCCN(C(=O)OC)C1CCS(=O)(=O)C1 (stereo not drawn) [11′, reference compound] | inactive

Same assay, conditions: PBMC, 24 h incubation, comparative compounds, Table 2, read-out: Minimum effective concentration IFN-α release

Row | Structure (SMILES) | minimal effective concentration
4 | CCc1nc2c(N)nc3ccccc3c2n1CCCCN(C(C)=O)C1CCS(=O)(=O)C1 (stereo not drawn) [7′, N-[4-(4-amino-2-ethyl-1H-imidazo[4,5-c]quinolin-1-yl)butyl]-N-(1,1-dioxidotetrahydro-3-thienyl)acetamide, reference compound] | 0.3 µM
5 | CCc1nc2c(N)nc3ccccc3c2n1CCCCN(C(=O)OC)C1CCS(=O)(=O)C1 (stereo not drawn) [8′, reference compound] | 0.1 µM
6 | CCc1nc2c(N)nc3ccccc3c2n1CCCCN(C(N)=O)C1CCS(=O)(=O)C1 (stereo not drawn) [9′, reference compound] | 0.3 µM
7 | CCNCc1nc2c(N)nc3ccccc3c2n1CCCCN(C(N)=O)C1CCS(=O)(=O)C1 (stereo not drawn) [12′, reference compound] | 10 µM
8 | COCCc1nc2c(N)nc3ccccc3c2n1CCCCN(C(C)=O)C1CCS(=O)(=O)C1 (stereo not drawn) [13′, reference compound] | 0.03 µM
9 | COCCc1nc2c(N)nc3ccccc3c2n1CCCCN(C(=O)OC)C1CCS(=O)(=O)C1 (stereo not drawn) [14′, reference compound] | 0.01 µM
10 | COCCc1nc2c(N)nc3ccccc3c2n1CCCCN(C(N)=O)C1CCS(=O)(=O)C1 (stereo not drawn) [15′, reference compound] | 0.1 µM

Same assay, conditions: PBMC, 24 h incubation, lowest concentration inducing the desired IFN-α release, Table 1, read-out: Minimum effective concentration IFN-α release

Row | Structure (SMILES) | minimal effective concentration
11 | CCc1nc2c(N)nc3ccccc3c2n1CCCCN(C(C)=O)C1CS(=O)(=O)C1 [Example 7, N-(4-(4-Amino-2-ethyl-1H-imidazo[4,5-c]quinolin-1-yl)butyl)-N-(1,1-dioxidothietan-3-yl)acetamide] | 0.1 µM
12 | CCc1nc2c(N)nc3ccccc3c2n1CCCCN(C(=O)OC)C1CS(=O)(=O)C1 [Example 8, Methyl (4-(4-amino-2-ethyl-1H-imidazo[4,5-c]quinolin-1-yl)butyl)(1,1-dioxidothietan-3-yl)carbamate] | 0.03 µM
13 | CCc1nc2c(N)nc3ccccc3c2n1CCCCN(C(N)=O)C1CS(=O)(=O)C1 [Example 9, 1-(4-(4-Amino-2-ethyl-1H-imidazo[4,5-c]quinolin-1-yl)butyl)-1-(1,1-dioxidothietan-3-yl)urea] | 0.1 µM
14 | CCNCc1nc2c(N)nc3ccccc3c2n1CCCCN(C(C)=O)C1CS(=O)(=O)C1 [Example 10, N-(4-(4-Amino-2-((ethylamino)methyl)-1H-imidazo[4,5-c]quinolin-1-yl)butyl)-N-(1,1-dioxidothietan-3-yl)acetamide] | 1 µM
15 | CCNCc1nc2c(N)nc3ccccc3c2n1CCCCN(C(=O)OC)C1CS(=O)(=O)C1 [Example 11, Methyl (4-(4-amino-2-((ethylamino)methyl)-1H-imidazo[4,5-c]quinolin-1-yl)butyl)(1,1-dioxidothietan-3-yl)carbamate] | 0.1 µM
16 | CCNCc1nc2c(N)nc3ccccc3c2n1CCCCN(C(N)=O)C1CS(=O)(=O)C1 [Example 12, 1-(4-(4-Amino-2-((ethylamino)methyl)-1H-imidazo[4,5-c]quinolin-1-yl)butyl)-1-(1,1-dioxidothietan-3-yl)urea] | 3 µM
17 | COCCc1nc2c(N)nc3ccccc3c2n1CCCCN(C(C)=O)C1CS(=O)(=O)C1 [Example 13, N-(4-(4-Amino-2-(2-methoxyethyl)-1H-imidazo[4,5-c]quinolin-1-yl)butyl)-N-(1,1-dioxidothietan-3-yl)acetamide] | 0.01 µM
18 | COCCc1nc2c(N)nc3ccccc3c2n1CCCCN(C(=O)OC)C1CS(=O)(=O)C1 [Example 14, Methyl (4-(4-amino-2-(2-methoxyethyl)-1H-imidazo[4,5-c]quinolin-1-yl)butyl)(1,1-dioxidothietan-3-yl)carbamate] | 0.001 µM
19 | COCCc1nc2c(N)nc3ccccc3c2n1CCCCN(C(N)=O)C1CS(=O)(=O)C1 [Example 15, 1-(4-(4-Amino-2-(2-methoxyethyl)-1H-imidazo[4,5-c]quinolin-1-yl)butyl)-1-(1,1-dioxidothietan-3-yl)urea] | 0.02 µM

Tested on: IFN-α secretion
Test: In vivo profiling: plasma IFN-α after single intravenous infusion in cynomolgus monkeys (ELISA)
Details: cynomolgus monkey, single dose 0.3 mg/kg (smallest dose tested), 30 min i.v. infusion
Procedure: In the following studies, a compound according to the invention was examined in an in vivo cynomolgus monkey model. It is evaluated whether and at which applied dose the compounds cause secretion of IFN-α.
In particular, a defined single dose of test compound was applied intravenously to cynomolgus monkeys by a thirty minute infusion. At several time points after initiation of the intravenous compound application, blood samples (0.5 mL for approximately 0.25 mL plasma) were collected from the vena cephalica antebrachii or vena saphena into K3EDTA tubes from the animals. Blood samples were stored on crushed ice prior to centrifugation. Plasma was obtained by centrifugation at 4° C. and approximately 1800 g for 10 minutes and was aliquoted into labeled micro tubes and stored frozen at −70° C. or below. Plasma samples were thawed, diluted and used for determination of IFN-α levels using an IFN-α Elisa Kit (e.g. VeriKine™ Cynomolgus/Rhesus IFN-α ELISA Kit) according to the manufacturer's instructions.

Row | Structure (SMILES) | peak plasma IFN-α concentration
20 | CCc1nc2c(N)nc3ccccc3c2n1CCCCN(C(C)=O)C1CS(=O)(=O)C1 [Example 7, N-(4-(4-Amino-2-ethyl-1H-imidazo[4,5-c]quinolin-1-yl)butyl)-N-(1,1-dioxidothietan-3-yl)acetamide] | about 5000 pg/ml

Same assay, conditions: cynomolgus monkey, single dose 10 mg/kg, 30 min i.v. infusion

Row | Structure (SMILES) | peak plasma IFN-α concentration
21 | CCc1nc2c(N)nc3ccccc3c2n1CCCCN(C(C)=O)C1CS(=O)(=O)C1 [Example 7, N-(4-(4-Amino-2-ethyl-1H-imidazo[4,5-c]quinolin-1-yl)butyl)-N-(1,1-dioxidothietan-3-yl)acetamide] | about 30,000 pg/ml
